Measured values reported in patent US20250241882A1, “COMPOSITION FOR TREATMENT OF THE SKIN” (DR. KURT WOLFF GMBH & CO. KG, priority 2022, published 2025).
Entries after “also recorded” stand apart in the source; their conditions may differ.

Tests used:
Format in all cases: cell-based, human
[1] = system: HaCaT cells; assay: CyQUANT assay, cell proliferation; conditions: after 48 h and 72 h of cultivation, versus control without DMG
Description: (§1) 1. As part of an in-vitro study, the effect of Na-dimethylglycinate was investigated in a cell culture model with human horn-forming keratinocyte cells. For this purpose, HaCaT cells were cultured for 1, 3, 5, and 7 days in DMEM medium (including fetal calf serum and an antibiotic-antimycotic mix) and, among other things, the viability, proliferation and migration of the cells were determined using suitable measuring methods, as well as the expression of the growth factors relevant for cell growth.
To measure proliferation, a so-called CyQUANT assay was performed. In this fluorescence-based assay, the fluorescent dye used binds to DNA (deoxyribonucleic acid), whereby the content of cellular DNA is a direct measure of the number of cells within a sample. Human epidermal keratinocyte cells (HaCaT) were seeded in a 96-well plate at a cell density of 5,000 cells/well and cultured in medium (DMEM with 10% FBS, 1% penicillin-streptomycin, 0.5% Fungizone). The next day and after a further 24 h, 48 h and 72 h of cultivation at 37° C. and 5 vol. % CO2, the cell culture medium was changed without (control) or with the active ingredient concentrations already contained. […]
Cell proliferation was determined using the CyQUANT assay. Fluorescence was measured using triple determination each time and standardized to the control at 24 h. […]

[2] = system: VEGF; assay: VEGF gene expression by qRT-PCR in HaCaT cells; conditions: after 24 h of cultivation, standardized to GAPDH, versus control
Description: VEGF (vascular endothelial growth factor) promotes the growth and formation of new blood and lymph vessels. Gene expression was measured using a standard method of quantitative real-time PCR (qRT-PCR).
Human epidermal keratinocyte cells (HaCaT) were seeded in a 6-well plate at a cell density of 140,000 cells/well and cultured in medium (DMEM with 10% FBS, 1% penicillin-streptomycin, 0.5% Fungizone) at 37° C. and 5 vol. % CO2. The next day, the cell culture medium was changed without (control) and with the active ingredient concentrations already contained and the cells were harvested after 24 h. Gene expression was measured using qRT-PCR based on previously published studies in B. V. Diaz, M.-C. Lenoir, A. Ladoux, C. Frelin, M. Demarchez, S. Michel, Journal of Biological Chemistry 2000, 275, 642-650.
Shown is the relative gene expression of VEGF determined by qRT-PCR (triple determination, standardized to the corresponding gene expression of a constitutively expressed gene; GAPDH-glyceraldehyde-3-phosphate dehydrogenase). The mean value with standard deviation is given.

[3] = system: HaCaT cells; assay: MTT assay, cell viability; conditions: after 48 h and 72 h of cultivation, versus control without DMG
Description: as §1
For this measurement, a so-called MTT assay was used to determine cellular metabolic activity as an indicator of cell viability and cytotoxicity. This colorimetric assay is based on the reduction of a yellow tetrazolium salt (3-(4,5-dimethylthiazol-2-yl)-2,5-diphenyltetrazolium bromide or MTT) to violet formazan crystals by metabolically active cells.
Human epidermal keratinocyte cells (HaCaT) were seeded in a 96-well plate at a cell density of 5,000 cells/well and cultured in medium (DMEM with 10% FBS, 1% penicillin-streptomycin, 0.5% Fungizone). […]
Cell viability was determined using MTT assay. The absorbance was measured using quadruple determination and standardized to the control at 24 h. […]

[4] = system: HaCaT cells; assay: wound healing assay, cell migration; conditions: different DMG concentrations, 16 h, 20 h, 24 h, compared to the control without DMG
Description: as §1
To measure migration, a so-called wound healing assay was performed, based on previously published studies in T. Kawabata, T. Otsuka, K. Fujita, G. Sakai, R. Matsushima-Nishiwaki, O. Kozawa, H. Tokuda, International journal of molecular medicine 2018, 42, 3,149-3,156. The principle is based on measuring the migration of cells over time on a cultivation surface yet to be colonized. […]
At time 0 h, the wound was created and images were taken after 16 h, 20 h, and 24 h of cultivation. Based on the images, the cultivation surface, which had not yet been populated by cells, was determined using the ImageJ software. The measured values are standardized to the time point 0 h (maximum size of the wound) and given in %.

**Q.** With `CN(C)CC(=O)[O-].[Na+]` [DMG, sodium dimethylglycinate] as the molecule, how does the “cell proliferation (CyQUANT assay)” value [1] read?
**A.** Its value is “significant increase”.

**Q.** And the “relative gene expression of VEGF” value [2]?
**A.** The value was “significant increase; also recorded: significantly increased”.

**Q.** And the “cell viability (MTT assay)” value [3]?
**A.** The value was “significant increase”.

**Q.** What about the “migration and wound closure” value [4] of the same molecule?
**A.** Its value is “significantly faster”.
